# According to patent publication US11149037B2, “Pyrazole MAGL inhibitors” (H. Lundbeck A/S, priority 2017, dated 2021):
# How the values were obtained:
# Type in all cases: biochemical
# FAAH [1] = molecular target: FAAH (Homo sapiens (Human), UniProt O00519); assay: In vitro competitive activity-based protein profiling, human proteomes (prefrontal cortex or PC3 cell membrane fractions); settings: human proteome; for inhibition at 1 µM: read-out: FAAH % inh. 1 μM (human)
# Summary of the method: (§1)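 Activity of MAGL and FAAH was quantified from fluorescent gel band intensities. Beforehand, inhibitors at several concentrations competed against subsequent probe labelling (FP-Rh, JW912 or HT-01) in species-matched proteomes, each step 30 min at 37° C.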
# MAGL [2] = molecular target: MAGL (Homo sapiens (Human), UniProt Q99685); assay: as above; settings: human proteome; for inhibition at 1 µM: read-out: MAGL % inh. 1 μM (human)
# Chain of MAGL (Homo sapiens (Human), UniProt Q99685) (Q99685 whole entry): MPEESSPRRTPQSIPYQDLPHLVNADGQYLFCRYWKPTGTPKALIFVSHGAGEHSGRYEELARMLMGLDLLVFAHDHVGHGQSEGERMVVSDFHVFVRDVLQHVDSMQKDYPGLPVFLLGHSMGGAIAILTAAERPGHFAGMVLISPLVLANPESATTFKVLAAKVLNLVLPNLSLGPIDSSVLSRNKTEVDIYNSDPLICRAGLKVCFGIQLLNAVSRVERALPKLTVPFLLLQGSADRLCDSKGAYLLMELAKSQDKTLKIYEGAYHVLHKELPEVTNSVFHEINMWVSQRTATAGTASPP
# Summary of the method: as §1
# FAAH [3] = molecular target: FAAH (Mus musculus (Mouse), UniProt O08914); assay: In vitro competitive activity-based protein profiling, mouse proteomes (brain membrane fraction or cell lysates); settings: mouse proteome, read-out: FAAH % inh. 1 μM (mouse)
# Chain of FAAH (Mus musculus (Mouse), UniProt O08914) (O08914 whole entry): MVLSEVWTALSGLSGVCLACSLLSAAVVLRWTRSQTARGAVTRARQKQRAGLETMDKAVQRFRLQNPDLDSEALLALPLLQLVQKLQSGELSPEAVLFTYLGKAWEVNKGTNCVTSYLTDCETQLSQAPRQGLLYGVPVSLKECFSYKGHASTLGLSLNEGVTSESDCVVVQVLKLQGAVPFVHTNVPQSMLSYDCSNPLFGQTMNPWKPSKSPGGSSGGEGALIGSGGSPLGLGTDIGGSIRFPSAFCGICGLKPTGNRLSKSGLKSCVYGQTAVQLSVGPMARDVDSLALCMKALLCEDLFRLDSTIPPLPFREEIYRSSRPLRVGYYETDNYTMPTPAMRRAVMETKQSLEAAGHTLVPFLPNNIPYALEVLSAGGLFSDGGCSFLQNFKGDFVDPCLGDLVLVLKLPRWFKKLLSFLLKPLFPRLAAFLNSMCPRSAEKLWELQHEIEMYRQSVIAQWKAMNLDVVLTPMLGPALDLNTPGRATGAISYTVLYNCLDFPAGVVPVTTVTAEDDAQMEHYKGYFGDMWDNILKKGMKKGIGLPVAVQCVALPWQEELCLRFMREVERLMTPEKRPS
# Summary of the method: as §1
# MAGL [4] = molecular target: MAGL (Mus musculus (Mouse), UniProt O35678); assay: as above; settings: mouse proteome, read-out: MAGL % inh. 1 μM (mouse)
# Chain of MAGL (Mus musculus (Mouse), UniProt O35678) (O35678 whole entry): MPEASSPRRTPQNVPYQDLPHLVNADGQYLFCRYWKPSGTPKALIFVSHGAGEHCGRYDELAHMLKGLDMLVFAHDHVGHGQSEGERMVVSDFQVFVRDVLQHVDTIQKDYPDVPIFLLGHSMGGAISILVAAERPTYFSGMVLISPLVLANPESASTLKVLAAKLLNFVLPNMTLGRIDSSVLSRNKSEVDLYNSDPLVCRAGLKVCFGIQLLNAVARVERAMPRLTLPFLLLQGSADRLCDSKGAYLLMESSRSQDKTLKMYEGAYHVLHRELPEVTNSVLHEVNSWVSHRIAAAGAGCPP
# Summary of the method: as §1
# Chain of FAAH (Homo sapiens (Human), UniProt O00519) (O00519 whole entry): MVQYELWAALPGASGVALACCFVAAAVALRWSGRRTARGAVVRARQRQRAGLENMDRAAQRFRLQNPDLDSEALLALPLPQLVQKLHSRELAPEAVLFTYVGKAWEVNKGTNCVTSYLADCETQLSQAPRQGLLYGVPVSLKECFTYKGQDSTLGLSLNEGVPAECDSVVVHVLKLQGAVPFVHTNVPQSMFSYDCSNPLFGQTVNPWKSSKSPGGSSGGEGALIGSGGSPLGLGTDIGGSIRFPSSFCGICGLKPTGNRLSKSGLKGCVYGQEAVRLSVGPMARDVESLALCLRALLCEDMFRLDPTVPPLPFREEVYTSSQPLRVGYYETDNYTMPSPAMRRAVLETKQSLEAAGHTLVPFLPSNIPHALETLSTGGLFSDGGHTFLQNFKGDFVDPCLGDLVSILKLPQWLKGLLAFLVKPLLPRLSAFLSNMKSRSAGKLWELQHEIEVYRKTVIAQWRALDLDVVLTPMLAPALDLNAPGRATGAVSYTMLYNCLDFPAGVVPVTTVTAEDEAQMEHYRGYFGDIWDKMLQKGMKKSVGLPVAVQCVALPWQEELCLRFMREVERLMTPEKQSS
Compound,inhibition at 1 µM (FAAH [1]) [%],inhibition at 1 µM (MAGL [2]) [%],inhibition at 1 µM (FAAH [3]) [%],inhibition at 1 µM (MAGL [4]) [%],IC50 (FAAH [1]) [µM],IC50 (MAGL [2]) [µM]
"CC(=O)Nc1ccn(C(=O)N2CCN(Cc3ccc(C(N)=O)c(C(F)(F)F)c3)CC2)n1 [Example 123, 4-((4-(3-Acetamido-1H-pyrazole-1-carbonyl)piperazin-1-yl)methyl)-2-(trifluoromethyl)benzamide]",0 to 25,> 75,0 to 25,> 75,,
"CC(=O)Nc1ccn(C(=O)N2CC3CN(Cc4ccc(C(N)=O)c(C(F)(F)F)c4)CC3C2)n1 (centres unmarked) [Example 124, 4-((5-(3-Acetamido-1H-pyrazole-1-carbonyl)hexahydropyrrolo[3,4-c]pyrrol-2(1H)-yl)methyl)-2-(trifluoromethyl)benzamide]",0 to 25,> 75,0 to 25,> 75,,
"CC(=O)Nc1ccn(C(=O)N2CCN(Cc3cccc(C(F)(F)F)c3)CC2)n1 [Example 127, N-(1-(4-(3-(Trifluoromethyl)benzyl)piperazine-1-carbonyl)-1H-pyrazol-3-yl)acetamide]",0 to 25,> 75,0 to 25,> 75,,
"CC(=O)Nc1ccn(C(=O)N2CCN(Cc3cccc(OC(F)(F)F)c3)CC2)n1 [Example 128, N-(1-(4-(3-(Trifluoromethoxy)benzyl)piperazine-1-carbonyl)-1H-pyrazol-3-yl)acetamide]",0 to 25,> 75,0 to 25,> 75,,
"CC(=O)Nc1ccn(C(=O)N2CCN(Cc3cccc(C(F)(F)F)c3C)CC2)n1 [Example 129, N-(1-(4-(2-Methyl-3-(trifluoromethyl)benzyl)piperazine-1-carbonyl)-1H-pyrazol-3-yl)acetamide]",0 to 25,> 75,0 to 25,> 75,,
"CC(=O)Nc1ccn(C(=O)N2CCC(C)(N(C)Cc3ccc(C(N)=O)c(C(F)(F)F)c3)CC2)n1 [Example 130, 4-(((1-(3-Acetamido-1H-pyrazole-1-carbonyl)-4-methylpiperidin-4-yl)(methyl)amino)methyl)-2-(trifluoromethyl)benzamide]",0 to 25,> 75,0 to 25,> 75,,
"CC(=O)Nc1ccn(C(=O)N2CC3CN(Cc4cc(F)cc(Cl)c4)CC3C2)n1 (centres unmarked) [Example 145, N-(1-(5-(3-Chloro-5-fluorobenzyl)octahydropyrrolo[3,4-c]pyrrole-2-carbonyl)-1H-pyrazol-3-yl)acetamide]",> 75,> 75,> 75,> 75,0.1 to 1,< 0.1
"CC(=O)Nc1ccn(C(=O)N2CC3CN(Cc4cc(Cl)cc(C(F)(F)F)c4)CC3C2)n1 (centres unmarked) [Example 146, N-(1-(5-(3-Chloro-5-(trifluoromethyl)benzyl)octahydropyrrolo[3,4-c]pyrrole-2-carbonyl)-1H-pyrazol-3-yl)acetamide]",> 75,> 75,> 75,> 75,1 to 10,< 0.1
"CC(=O)Nc1ccn(C(=O)N2CCC3(CCCN3C(=O)c3cc4ccc(C(F)(F)F)cc4s3)CC2)n1 [Example 155, N-(1-(1-(6-(Trifluoromethyl)benzo[b]thiophene-2-carbonyl)-1,8-diazaspiro[4.5]decane-8-carbonyl)-1H-pyrazol-3-yl)acetamide]",0 to 25,> 75,> 75,> 75,,
"CC(=O)Nc1ccn(C(=O)N2CC3CN(Cc4cc(N5CCOCC5)cc(C(F)(F)F)c4)CC3C2)n1 (centres unmarked) [Example 166, N-(1-(5-(3-Morpholino-5-(trifluoromethyl)benzyl)octahydropyrrolo[3,4-c]pyrrole-2-carbonyl)-1H-pyrazol-3-yl)acetamide]",0 to 25,> 75,> 75,> 75,,
"CC(=O)Nc1ccn(C(=O)N2CC3CN(Cc4cc(Cl)cc(N5CCOCC5)c4)CC3C2)n1 (centres unmarked) [Example 167, N-(1-(5-(3-Chloro-5-morpholinobenzyl)octahydropyrrolo[3,4-c]pyrrole-2-carbonyl)-1H-pyrazol-3-yl)acetamide]",25 to 50,> 75,> 75,> 75,,

# The next lines start with the values.
inhibition at 1 µM (FAAH [1]) [%],inhibition at 1 µM (MAGL [2]) [%],inhibition at 1 µM (FAAH [3]) [%],inhibition at 1 µM (MAGL [4]) [%],IC50 (FAAH [1]) [µM],IC50 (MAGL [2]) [µM],Compound
0 to 25,> 75,0 to 25,> 75,,,"CC(=O)Nc1ccn(C(=O)N2CCC3(CC2)CN(Cc2ccc(C(N)=O)c(C(F)(F)F)c2)C3)n1 [Example 126, 4-((7-(3-Acetamido-1H-pyrazole-1-carbonyl)-2,7-diazaspiro[3.5]nonan-2-yl)methyl)-2-(trifluoromethyl)benzamide]"
0 to 25,25 to 50,0 to 25,0 to 25,,,"CS(=O)(=O)Nc1ccn(C(=O)N2CC3CN(Cc4ccc(Cl)c(N5CC6COCC6C5)c4)CC3C2)n1 (centres unmarked) [Example 140, N-(1-(5-(4-chloro-3-(Tetrahydro-1H-furo[3,4-c]pyrrol-5(3H)-yl)benzyl)octahydropyrrolo[3,4-c]pyrrole-2-carbonyl)-1H-pyrazol-3-yl)methanesulfonamide]"
0 to 25,> 75,0 to 25,> 75,,,"C[C@@H]1CN(Cc2ccc(Cl)c(N3CCC(F)CC3)c2)CCN1C(=O)n1ccc(NS(C)(=O)=O)n1 [Example 142, (R)-N-(1-(4-(4-Chloro-3-(4-fluoropiperidin-1-yl)benzyl)-2-methylpiperazine-1-carbonyl)-1H-pyrazol-3-yl)methanesulfonamide]"
0 to 25,> 75,0 to 25,> 75,,,"CC(=O)Nc1ccn(C(=O)N2CCN(Cc3cc(Cl)cc(Cl)c3)CC2)n1 [Example 144, N-(1-(4-(3,5-Dichlorobenzyl)piperazine-1-carbonyl)-1H-pyrazol-3-yl)acetamide]"
0 to 25,> 75,0 to 25,> 75,,,"CS(=O)(=O)Nc1ccn(C(=O)N2CCN(Cc3ccc(Cl)c(N4CCC(F)(F)CC4)c3)CC2)n1 [Example 147, N-(1-(4-(4-Chloro-3-(4,4-difluoropiperidin-1-yl)benzyl)piperazine-1-carbonyl)-1H-pyrazol-3-yl)methanesulfonamide]"
> 75,> 75,> 75,> 75,0.1 to 1,< 0.1,"CS(=O)(=O)Nc1ccn(C(=O)N2CCN(Cc3cccc(Oc4ccc(Cl)cc4)c3)CC2)n1 [Example 149, N-(1-(4-(3-(4-Chlorophenoxy)benzyl)piperazine-1-carbonyl)-1H-pyrazol-3-yl)methanesulfonamide]"
0 to 25,> 75,0 to 25,> 75,,,"C[C@H]1CCCN1c1cc(CN2CCN(C(=O)n3ccc(NS(C)(=O)=O)n3)CC2)ccc1C(F)(F)F [Example 151, (S)-N-(1-(4-(3-(2-Methylpyrrolidin-1-yl)-4-(trifluoromethyl)benzyl)piperazine-1-carbonyl)-1H-pyrazol-3-yl)methanesulfonamide]"
0 to 25,> 75,0 to 25,50 to 75,,,"CCN1CC2CN(c3cc(CN4CCN(C(=O)n5ccc(NS(C)(=O)=O)n5)CC4)ccc3Cl)CC2C1 (centres unmarked) [Example 153, N-(1-(4-(4-Chloro-3-(5-ethylhexahydropyrrolo[3,4-c]pyrrol-2(1H)-yl)benzyl)piperazine-1-carbonyl)-1H-pyrazol-3-yl)methanesulfonamide]"
25 to 50,50 to 75,0 to 25,0 to 25,,,"CS(=O)(=O)Nc1ccn(C(=O)N2CCC3(CCN(Cc4ccc(N5CC6COCC6C5)c(Cl)c4)C3)CC2)n1 (centres unmarked) [Example 160, N-(1-(2-(3-Chloro-4-(tetrahydro-1H-furo[3,4-c]pyrrol-5(3H)-yl)benzyl)-2,8-diazaspiro[4.5]decane-8-carbonyl)-1H-pyrazol-3-yl)methanesulfonamide]"
0 to 25,> 75,0 to 25,0 to 25,,,"CS(=O)(=O)Nc1ccn(C(=O)N2CCC3(CCN(Cc4ccccc4Cl)C3)CC2)n1 [Example 162, N-(1-(2-(2-Chlorobenzyl)-2,8-diazaspiro[4.5]decane-8-carbonyl)-1H-pyrazol-3-yl)methanesulfonamide]"
0 to 25,> 75,0 to 25,0 to 25,,,"CS(=O)(=O)Nc1ccn(C(=O)N2CCC3(CCN(Cc4cccc(Cl)c4)C3)CC2)n1 [Example 163, N-(1-(2-(3-Chlorobenzyl)-2,8-diazaspiro[4.5]decane-8-carbonyl)-1H-pyrazol-3-yl)methanesulfonamide]"
0 to 25,> 75,0 to 25,0 to 25,,,"CS(=O)(=O)Nc1ccn(C(=O)N2CCC3(CCN(Cc4ccc(Cl)cc4)C3)CC2)n1 [Example 164, N-(1-(2-(4-Chlorobenzyl)-2,8-diazaspiro[4.5]decane-8-carbonyl)-1H-pyrazol-3-yl)methanesulfonamide]"
